Reference: ChEMBL document CHEMBL1155645, “Microbial transformations of the antimelanoma agent betulinic acid” (2000)
In brackets after ≈: the same amount, converted by molar mass.

Legend:
[1] = Cytotoxicity against human Mel2 cells; format: functional; settings: read-out: ED50 (the source's name)
[2] = Cytotoxicity against human Mel1 cells; format: functional; settings: read-out: ED50 (the source's name)

Compound | EC50 [1] [mg/L] | EC50 [2] [mg/L]
C=C(C)[C@@H]1CC[C@]2(C(=O)O)CC[C@]3(C)[C@H](CC[C@@H]4[C@@]5(C)CCC(=O)C(C)(C)[C@@H]5CC[C@]43C)[C@@H]12 [BETUNOLIC ACID] | 0.1 (≈ 0.22 µM) | 16 (≈ 35.2 µM)
C=C(C)[C@@H]1CC[C@]2(C(=O)O)CC[C@]3(C)[C@H](CC[C@@H]4[C@@]5(C)CC[C@H](O)C(C)(C)[C@@H]5CC[C@]43C)[C@@H]12 [BETULINIC ACID] | 1 (≈ 2.19 µM) | 3.3 (≈ 7.23 µM)
C=C(C)[C@@H]1CC[C@]2(C(=O)O)CC[C@]3(C)[C@H](CC[C@@H]4[C@@]5(C)CC[C@H](O)C(C)(C)[C@@H]5C[C@H](O)[C@]43C)[C@@H]12 | 7.2 (≈ 15.2 µM) | 17.1 (≈ 36.2 µM)
C=C(C)[C@@H]1CC[C@]2(C(=O)O)CC[C@]3(C)[C@H](CC[C@@H]4[C@@]5(C)CC[C@H](O)C(C)(C)[C@@H]5[C@@H](O)[C@H](O)[C@]43C)[C@@H]12 | 16.8 (≈ 34.4 µM) | 10.9 (≈ 22.3 µM)
C=C(C)[C@@H]1CC[C@]2(C(=O)O)CC[C@]3(C)[C@H](CC[C@@H]4[C@@]5(C)[C@H](O)C[C@H](O)C(C)(C)[C@@H]5C[C@H](O)[C@]43C)[C@@H]12 | > 20 | > 20
